From patent US20060079453A1, “Hla binding peptides and their uses” (priority 2002, published 2006)
Where two headings read alike, the source gives them in different places. No end group written: not given here.

Legend:
Experiment in all cases: biochemical
Format in all cases: binding
HLA-DR DRB4*0101 (DR53) = HLA-DR DRB4*0101 (DR53) (Homo sapiens, UniProt P01903+P13762, G164S)
HLA-DR DRB3*0101 (DR52) = HLA-DR DRB3*0101 (DR52) (Homo sapiens, UniProt P01903+P79483)
HLA-DR DRB1*0301 (DR3) = HLA-DR DRB1*0301 (DR3) (Homo sapiens, UniProt P01903+P01911, A100K/A102G/A103R/A169T/F55Y/I96L/K41T/L162R/M171V/P40S/Q125H/Q178H/Q39Y/R42S/S66N/T106N/T262R/W38E/Y61H)
HLA-DR DRB1*0401 (DR4) = HLA-DR DRB1*0401 (DR4) (Homo sapiens, UniProt P01903+P01911, A100K/A169T/F76Y/I96L/K127E/L162R/M171V/N62H/P40V/Q125Y/R42H/S133A/S149N/S66Y/V115G/V209L/W38E); settings: DRB1 *0401
HLA-DR DRB5*0101 (DR51) = HLA-DR DRB5*0101 (DR51) (Homo sapiens, UniProt P01903+Q30154)
HLA-DR DRB1*0901 (DR9) = HLA-DR DRB1*0901 (DR9) (Homo sapiens, UniProt P01903+P01911, A100R/A103E/D57H/D86V/F55Y/F60I/F76Y/I96F/K127E/L162R/M171V/P40D/Q125H/Q99R/R33Q/R42F/S133A/S66N/T210M/V115G/W38K/Y107V/Y59G/Y89S); settings: DRB1 *0901
HLA-DR DRB1*1101 (DR11) = HLA-DR DRB1*1101 (DR11) (Homo sapiens, UniProt P01903+P01911, A100R/A169T/A87E/I96F/K41T/L162R/M171V/P40S/Q125H/Q178H/Q39Y/Q99D/R42S/S66Y/T262R/V115G/W38E)
HLA-DR DRB1*0701 (DR7) = HLA-DR DRB1*0701 (DR7) (Homo sapiens, UniProt P01903+P01911, A100R/A102G/A103Q/D57E/D86V/E43K/F76Y/K127E/L162R/M171V/P40G/Q125H/Q99D/R33Q/R42Y/R54Q/S133A/S66F/T210M/V115G/Y107V/Y59L/Y89S); settings: DRB1 *0701
HLA-DR DRB1*1501 (DR15) = HLA-DR DRB1*1501 (DR15) (Homo sapiens, UniProt P01903+P01911)
HLA-DR DRB1*0802 (DR8) = HLA-DR DRB1*0802 (DR8) (Homo sapiens, UniProt P01903+P01911, A100R/A103L/A169T/F76Y/H45Y/I96F/K41T/L162R/M171V/P40S/Q125H/Q178H/Q39Y/Q99D/R218S/R42G/S66Y/V115G/W38E)
HLA-DR DRB1*1302 (DR13) = HLA-DR DRB1*1302 (DR13) (Homo sapiens, UniProt P01903+P01911, A100E/A169T/K41T/L162R/M171V/P40S/Q125H/Q178H/Q39Y/Q99D/R42S/S66N/T262R/V115G/W38E/Y61H)
Sequence of HLA-DR DRB1*1302 (DR13) (P01903 26-254 limits assumed, other chains not shown): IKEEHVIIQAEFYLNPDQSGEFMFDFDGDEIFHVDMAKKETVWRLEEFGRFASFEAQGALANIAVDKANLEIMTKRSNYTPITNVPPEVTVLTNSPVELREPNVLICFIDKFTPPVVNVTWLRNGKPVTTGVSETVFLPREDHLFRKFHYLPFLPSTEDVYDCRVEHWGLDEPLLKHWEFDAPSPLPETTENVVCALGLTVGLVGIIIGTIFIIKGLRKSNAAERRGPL

Sequence of HLA-DR DRB1*1101 (DR11) (P01903 26-254 limits assumed, other chains not shown): as above
Sequence of HLA-DR DRB1*0301 (DR3) (P01903 26-254 limits assumed, other chains not shown): as above

Molecule | IC50 (HLA-DR DRB3*0101 (DR52)) | IC50 (HLA-DR DRB1*0301 (DR3)) | IC50 (HLA-DR DRB1*0401 (DR4)) | IC50 (HLA-DR DRB3*0101 (DR52); read-out: DRB3 *0101) | IC50 (HLA-DR DRB5*0101 (DR51); read-out: DRB5 *0101) | IC50 (HLA-DR DRB1*1101 (DR11); read-out: DRB1 *1101) | IC50 (HLA-DR DRB1*1501 (DR15); read-out: DRBI *1501) | also measured
CC[C@H](C)[C@H](NC(=O)[C@H](Cc1ccccc1)NC(=O)[C@H](C)NC(=O)[C@H](CCCNC(=N)N)NC(=O)[C@H](CCC(=O)O)NC(=O)[C@H](CC(C)C)NC(=O)[C@H](Cc1ccccc1)NC(=O)[C@H](CCSC)NC(=O)[C@H](CC(C)C)NC(=O)[C@H](CCC(N)=O)NC(=O)[C@@H](N)CC(=O)O)C(=O)N[C@@H](CC(=O)O)C(=O)N1CCC[C@H]1C(=O)N[C@@H](CC(C)C)C(=O)NCC(=O)O | 17.1 µM | > 19.7 µM |  |  |  |  |  | IC50 (HLA-DR DRB4*0101 (DR53); DRB4 *0101): 0.0066 µM
CC[C@H](C)[C@H](NC(=O)[C@@H](NC(=O)[C@@H]1CCCN1C(=O)CN)C(C)C)C(=O)N1CCC[C@H]1C(=O)N[C@@H](CCC(N)=O)C(=O)N[C@@H](CC(=O)O)C(=O)N[C@@H](Cc1c[nH]c2ccccc12)C(=O)N[C@@H](CO)C(=O)N[C@H](C(=O)N[C@@H](CCC(=O)O)C(=O)N[C@@H](CS)C(=O)N[C@@H](CCSC)C(=O)N[C@H](C(=O)N[C@H](C(=O)O)[C@@H](C)O)[C@@H](C)O)[C@@H](C)O | 20.3 µM | 52.1 µM |  |  |  |  |  | IC50 (HLA-DR DRB4*0101 (DR53); DRB4 *0101): 0.961 µM
CC[C@H](C)[C@H](NC(=O)[C@H](CCC(=O)O)NC(=O)[C@H](CC(N)=O)NC(=O)CNC(=O)[C@H](CC(=O)O)NC(=O)[C@H](CCC(=O)O)NC(=O)[C@H](CC(N)=O)NC(=O)[C@@H](NC(=O)[C@@H](NC(=O)[C@H](CO)NC(=O)[C@@H](NC(=O)[C@@H](N)Cc1ccc(O)cc1)[C@@H](C)CC)[C@@H](C)CC)[C@@H](C)CC)C(=O)N[C@@H](Cc1ccccc1)C(=O)N[C@@H](CC(N)=O)C(=O)N[C@H](C(=O)O)[C@@H](C)O |  | 0.397 µM | 0.624 µM |  |  |  |  | IC50 (HLA-DR DRB4*0101 (DR53); DRB4 *0101): 3.71 µM; IC50 (HLA-DR DRB5*0101 (DR51); DRB5 *0101): 73 µM; IC50 (HLA-DR DRB1*0901 (DR9)): 83.1 µM; IC50 (HLA-DR DRB1*1101 (DR11); DRB1 *1101): > 18.9 µM; IC50 (HLA-DR DRB1*0701 (DR7)): 23.7 µM; IC50 (HLA-DR DRB1*1501 (DR15); DRBI *1501): 2.71 µM; IC50 (HLA-DR DRB1*0802 (DR8)): > 123 µM; IC50 (HLA-DR DRB1*1302 (DR13); DRBI *1302): 0.346 µM
AFGSMAKKGEEQNVRSAGEL | > 33.3 µM | > 30 µM | > 0.667 µM |  |  |  |  | IC50 (HLA-DR DRB1*1101 (DR11); DRB1 *1101): 1.82 µM; IC50 (HLA-DR DRB1*0701 (DR7)): > 12.5 µM
AKSTWYGKPTGAGPKDNGGA | > 20 µM | > 30 µM |  |  |  |  |  | IC50 (HLA-DR DRB4*0101 (DR53); DRB4 *0101): 10 µM; IC50 (HLA-DR DRB1*0701 (DR7)): > 12.5 µM
ALQAQKEAISPPDAA |  |  |  | > 91.7 µM |  |  |  | 
AVGLPSIPVHPIGYY |  |  |  | > 11.8 µM | 38.5 µM | 33.3 µM | 0.518 µM | IC50 (HLA-DR DRB4*0101 (DR53); read-out: DRB4 *0101): 5.39 µM
AWYAWRNRCK |  |  |  | > 11.1 µM | 0.044 µM | > 5 µM |  | 
Ac-NPDAENWNSQFEILEDAA | 1 µM |  |  |  |  |  |  | IC50 (HLA-DR DRB5*0101 (DR51); DRB5 *0101): 50 µM; IC50 (HLA-DR DRB1*1101 (DR11); DRB1 *1101): > 33.3 µM; IC50 (HLA-DR DRB1*1501 (DR15); DRBI *1501): > 10 µM; IC50 (HLA-DR DRB1*1302 (DR13); DRBI *1302): > 10 µM
DDYVKQYTKQYTKQNTLKK | > 11.1 µM |  | 0.16 µM |  |  |  |  | IC50 (HLA-DR DRB5*0101 (DR51); DRB5 *0101): 0.035 µM; IC50 (HLA-DR DRB1*1101 (DR11); DRB1 *1101): > 1.11 µM
DIAAKYKELGY | > 25 µM | > 900 µM | > 0.471 µM |  |  |  |  | IC50 (HLA-DR DRB5*0101 (DR51); DRB5 *0101): ≥ 200 µM; IC50 (HLA-DR DRB1*1101 (DR11); DRB1 *1101): > 10 µM
DSSLEGNYTLRVDCT |  |  |  | 0.576 µM | 16.8 µM | > 50 µM | 1.2 µM | IC50 (HLA-DR DRB1*1302 (DR13); read-out: DRBI *1302): 0.0076 µM
FAGIRRDGLLLRIVD |  |  |  | 0.553 µM |  |  | 0.028 µM | 
FPTIPLSRLFDNAML |  |  |  | 121 µM |  | 46.4 µM | 2.77 µM | IC50 (HLA-DR DRB1*1302 (DR13); read-out: DRBI *1302): 9.31 µM
FVNQHLTGSHLVEAL |  |  |  | 94.5 µM | > 43.3 µM | > 10.5 µM | 0.799 µM | 
GAAVVHEIVRSFGTL | 0.788 µM |  |  |  |  |  |  | 
GAGPKDNGGACGYKDVDKAP | > 20 µM | > 30 µM | > 0.667 µM |  |  |  |  | IC50 (HLA-DR DRB1*0701 (DR7)): > 12.5 µM
GGVLVNEILNHMKRA |  |  |  | 8.12 µM | 0.0087 µM | 0.255 µM | 0.576 µM | IC50 (HLA-DR DRB4*0101 (DR53); read-out: DRB4 *0101): 0.0058 µM; IC50 (HLA-DR DRB1*1302 (DR13); read-out: DRBI *1302): 0.049 µM
GMLPVCPLIPGSSTTSTGP | > 25 µM | > 900 µM | 0.4 µM |  |  |  |  | IC50 (HLA-DR DRB1*1101 (DR11); DRB1 *1101): 2.5 µM
HQAISPRTLNSPAIF |  |  |  | > 83.3 µM | > 200 µM | 33.7 µM | 8.11 µM | IC50 (HLA-DR DRB4*0101 (DR53); read-out: DRB4 *0101): 0.13 µM
HSLFHPEDTGQVFQV |  |  |  | 0.553 µM |  |  |  | 
IAKVPPGPNITAEYGDKWLD | > 20 µM | > 30 µM | > 0.667 µM |  |  |  |  | IC50 (HLA-DR DRB1*0701 (DR7)): > 12.5 µM
KPAVYTKVVHYRKWI |  |  |  | 7.19 µM | 0.023 µM |  | 0.401 µM | 
